# According to article PMC11864979, “First-in-class ultralong-target-residence-time p38α inhibitors as a mitosis-targeted therapy for colorectal cancer” (Nature Cancer, 2025):
# Several values for one entry are separate records, joined by “and”; a condition that tells them apart may be missing. Identical values can stand only once. Like-named read-outs stand apart in the source and are kept apart here.
# Tests used:
# HT-29 = test: cell viability in human CRC cell line HT-29; assay type: cell-based; conditions: Homo sapiens, HT-29, read-out: HT-29 Cell viability (%), 10.0000 µM; ED Fig. 9h, first experiment, replicates
# Method: (§1) To generate KAP^2D cells, KAP organoids were isolated from Matrigel, fragmented by mechanical dissociation and plated without any extracellular matrix on common cell culture dishes. Phoenix-Eco packaging cells (CRL-3214), HCT-15 (CCL-225), HCT 116 (CCL-247), COLO 205 (CCL-222), LS 174T (CL-188), RKO (CRL-2577) and HT-29 (HTB-38) were obtained from the American Type Culture Collection. The cells were cultured at 37 °C and 7% CO2 with RPMI (KAP^2D cells) or DMEM (other cell lines), supplemented with 10% FBS and penicillin–streptomycin. KAP^2D cells were authenticated using PCR (Kras locus and Trp53 locus). Phoenix-Eco packaging cells and HCT-15, HCT 116, COLO 205, LS 174T, RKO and HT-29 cells were authenticated by the provider using short tandem repeat profiling. No commonly misidentified cell lines were used. Mycoplasma contamination was excluded by a PCR-based analysis.
# (§2) For in vitro treatment studies, organoids were mechanically dissociated and digested using TrypLE supplemented with 100 µg ml^−1 DNaseI and 10.5 µM Y-27632 dihydrochloride (Invitrogen) at 37 °C. A total of 1,000–2,000 single cells were plated per well in white 96-well plates (Greiner) in culture medium containing 10% GFR Matrigel or Cultrex BME. The treatment with doxycycline (5 µg ml^−1), pharmacological inhibitors or corresponding volumes of DMSO was started 24 h after plating. Doxycycline was obtained from Sigma-Aldrich. […] Cell viability was measured by means of CellTiter-Glo 3D or CellTiter-Glo 2.0 reagent (Promega) according to the manufacturers’ instructions and the Infinite M Plex reader (Tecan, i-control version 3.9.1 software). Results were normalized to vehicle (DMSO) or to shNC. For cell-doubling assays, the cell number was quantified at the corresponding time points using Guava EasyCyte flow cytometer (Luminex, CytoSoft v5.2 software).
# PDO6 = test: cell viability in patient-derived CRC organoids PDO6; assay type: cell-based, human
# Method: as §2
# HCT 116 = test: cell viability in human CRC cell line HCT 116; assay type: cell-based; conditions: for HCT 116 Cell viability (%): 4 d
# Method: as §1, §2
# RKO = test: cell viability in human CRC cell line RKO; assay type: cell-based; conditions: ED Fig. 9g, replicates; for viability at 0.0137 µM: read-out: RKO Cell viability (%), 0.0137 µM; for viability at 0.0412 µM: read-out: RKO Cell viability (%), 0.0412 µM; for viability at 0.1235 µM: read-out: RKO Cell viability (%), 0.1235 µM; for viability at 0.3704 µM: read-out: RKO Cell viability (%), 0.3704 µM; for viability at 3.3333 µM: read-out: RKO Cell viability (%), 3.3333 µM; for viability at 10 µM: read-out: RKO Cell viability (%), 10.0000 µM
# Method: as §1, §2
# [1] = Homo sapiens, RKO, first experiment
structure (smiles),measurement,setting,value
"O=C1c2ccc(Nc3ccc(F)cc3F)cc2CCc2ccc(OC[C@H](O)CO)cc21 [SKL, skepinone-L, reference compound]",viability at 10 µM,HT-29,25.2%
same,viability at 1 µM,"PDO6; Homo sapiens, 96 h, read-out: Cell viability (%), PDO6, 1 µM, 4 days",112%
same,Cell viability (%),"PDO6; PDO6, 0.5 µM, 4 d, 0.5 µM",101.15% and 118.77% and 80.46%
same,Cell viability (%),"PDO6; PDO6, 1 µM, 4 days, 1 µM",110.32% and 93.07%
same,HCT 116 Cell viability (%),HCT 116; 0.0137 µM,82.53% and 93.66% and 88.98% and 84.63%
same,HCT 116 Cell viability (%),HCT 116; 0.0412 µM,87.30% and 84.90% and 78.78% and 77.22% and 83.29%
same,HCT 116 Cell viability (%),HCT 116; 0.1235 µM,92.74% and 88.80% and 81.62% and 82.67% and 87.37%
same,HCT 116 Cell viability (%),HCT 116; 0.3704 µM,94.27% and 95.66% and 82.63% and 82.17%
same,HCT 116 Cell viability (%),HCT 116; 1.1111 µM,100.75% and 99.43% and 96.05% and 80.80% and 79.61% and 91.28%
same,HCT 116 Cell viability (%),HCT 116; 3.3333 µM,95.32% and 96.31% and 81.21% and 79.37% and 87.78%
same,HCT 116 Cell viability (%),HCT 116; 10.0000 µM,90.67% and 87.54% and 88.22% and 75.98% and 77.27% and 105.12%
same,viability at 0.0137 µM,"HCT 116; Homo sapiens, HCT-116, 96 h, read-out: HCT 116 Cell viability (%), 0.0137 µM, 4 d",85.5%
same,viability at 0.0412 µM,"HCT 116; Homo sapiens, HCT-116, 96 h, read-out: HCT 116 Cell viability (%), 0.0412 µM, 4 d",90.7%
same,viability at 0.1235 µM,"HCT 116; Homo sapiens, HCT-116, 96 h, read-out: HCT 116 Cell viability (%), 0.1235 µM, 4 d",93.8%
same,viability at 0.3704 µM,"HCT 116; Homo sapiens, HCT-116, 96 h, read-out: HCT 116 Cell viability (%), 0.3704 µM, 4 d",94.8%
same,viability at 3.3333 µM,"HCT 116; Homo sapiens, HCT-116, 96 h, read-out: HCT 116 Cell viability (%), 3.3333 µM, 4 d",96.3%
same,RKO Cell viability (%),"RKO; 0.0137 µM, Repetition",119.75% and 114.04%
same,RKO Cell viability (%),"RKO; 0.0137 µM, first experiment",97.01% and 95.97%
same,RKO Cell viability (%),"RKO; 0.0412 µM, Repetition",110.50% and 104.43%
same,RKO Cell viability (%),"RKO; 0.0412 µM, first experiment",90.38% and 90.15%
same,RKO Cell viability (%),"RKO; 0.1235 µM, Repetition",96.29%
same,RKO Cell viability (%),"RKO; 0.1235 µM, first experiment",96.41% and 82.79%
same,RKO Cell viability (%),"RKO; 0.3704 µM, Repetition",112.94% and 109.02%
same,RKO Cell viability (%),"RKO; 0.3704 µM, first experiment",79.06% and 75.48%
same,RKO Cell viability (%),"RKO; 1.1111 µM, Repetition",92.46% and 113.42% and 111.27%
same,RKO Cell viability (%),"RKO; 1.1111 µM, first experiment",98.68% and 92.88%
same,RKO Cell viability (%),"RKO; 3.3333 µM, Repetition",97.71% and 103.33%
same,RKO Cell viability (%),"RKO; 3.3333 µM, first experiment",90.21% and 92.19%
same,RKO Cell viability (%),"RKO; 10.0000 µM, Repetition",100.51% and 98.00%
same,RKO Cell viability (%),"RKO; 10.0000 µM, first experiment",77.92% and 73.23%
same,viability at 0.0137 µM,"RKO; Homo sapiens, RKO, Repetition",123%
same,viability at 0.0137 µM,RKO; [1],103%
same,viability at 0.0412 µM,"RKO; Homo sapiens, RKO, Repetition",107%
same,viability at 0.0412 µM,RKO; [1],102%
same,viability at 0.1235 µM,"RKO; Homo sapiens, RKO, Repetition",114%
same,viability at 0.1235 µM,RKO; [1],91.2%
same,viability at 0.3704 µM,"RKO; Homo sapiens, RKO, Repetition",108%
same,viability at 0.3704 µM,RKO; [1],82.8%
same,viability at 1.1111 µM,"RKO; Homo sapiens, RKO, read-out: RKO Cell viability (%), 1.1111 µM, first experiment",99.3%
same,viability at 3.3333 µM,"RKO; Homo sapiens, RKO, Repetition",96.8%
same,viability at 3.3333 µM,RKO; [1],96.5%
same,viability at 10 µM,"RKO; Homo sapiens, RKO, Repetition",92%
same,viability at 10 µM,RKO; [1],71.1%
